Consider 9 compounds from patent US8187646B2, “Nucleotide pyrophosphatase inhibitor and coenzyme regenerating systems” (Puratos N.V., priority 2004, dated 2012).

“Also recorded” adds a separate entry of the source.

Test [1] relates to wheat flour nucleotide pyrophosphatase (NPP). The experiment in a line: In vitro NPP inhibition studies (NAD+ degradation by wheat flour extract). Format: biochemical. The settings on record: for ability to inhibit NPP in wheat flour: ADP about 1-2 mM, phosphates tested at 10 g/l; for reactivation of the inhibited enzyme by divalent metal ions: addition of divalent ions (Mg2+, Mn2+; excess MgCl2, MnCl2, ZnCl2, CaCl2). The procedure:
As an example of nucleotide pyrophosphatase inhibition, pyrophosphate was tested.
To perform in vitro nucleotide pyrophosphatase (NPP) inhibition studies, a reaction mixture of 5 ml was made containing 2.5 ml of flour extract (see Example 12), 1.5 ml of NAD^+ or NADH solution and 1 ml of potential inhibitor. The coenzymes and inhibitors were dissolved in a 0.2 M acetate buffer at pH 5.5. The final coenzyme concentration was 0.5 mM, unless otherwise mentioned. The different phosphates ([…] (Na2H2P2O7), sodium metaphosphate ((NaPO3)n), pentasodium tripolyphosphate (Na5P3O10), tetrasodium pyrophosphate (Na4P2O7) and dicalcium pyrophosphate (CaH2P2O7)) were tested in a concentration of 10 g/l. For the reactivation experiments with metal ions and to test a synergetic effect of glycine with EDTA the reaction mixture was adapted: 500 μl of inhibitor was added together with 500 μl of cation or glycine instead of 1 ml inhibitor. For the reactivation experiments with metal ions, the chloride forms of the cations were used, i.e. MgCl2, MnCl2, ZnCl2 and CaCl2.
A flour extract was prepared based on the method described by Honold et al. (1966, Cereal Chemistry 43:517-528). To 5 g of flour, 25 ml of an aqueous 12.5% sucrose solution was added. The solution was homogenised with an UltraTurrax mixer (IKA Werke, Janke & Kunkel GmbH & CoKG, Staufen, Germany). This homogenised flour suspension was centrifuged during 5 minutes at 1000 rpm (77 g) (SS34 rotor, Sorvall RC 5B centrifuge). The supernatant was recovered and filtrated through Whatman No. 1 filter paper. The filtrate was used as crude flour extract. All steps were carried out between 0° C. and 5° C.

For test [2], the system named is nicotinamide coenzymes NAD+/NADH in dough systems. The experiment in a line: Coenzyme (NAD+/NADH) concentrations in dough systems (mini doughs). Also on record: species or system wheat. The note with it: 0.3 g calcium pyrophosphate per 100 g flour; before and after 60 minutes dough resting at 25° C.
Protocol: The oxidised (NAD^+) and reduced (NADH) form of the nicotinamide coenzymes were extracted from doughs with an acid and alkaline extraction method respectively.
The coenzymes, NAD^+ and NADH, can be determined with an isocratic reversed phase HPLC method on a Varian Prostar HPLC system. Separation of the coenzymes NAD^+ and NADH was carried out on a Chromsep Microspher 3C18 column (3 μm particle size, 4.6×100 mm, Chrompack). The mobile phase was 96% 0.15 M citrate-sodium phosphate buffer (pH 6.8) containing 1 mM EDTA, and 4% methanol (30° C.). The flow rate was 0.5 ml/min and detection was accomplished by UV absorption at 260 nm (Varian Prostar UV 320).
All samples were filtrated (Sartorius Minisart RC15, 0.45 μm) and sample injection (20 μl) was accomplished with a Varian Prostar 410 autosampler. The nucleotide concentration was measured by the peak area of the chromatogram with calibration curves, which were prepared using a known amount of coenzymes.
Baking tests were performed with mini doughs (150 g).
The doughs were kneaded with a pin mixer during 4.5 minutes, after which they were incubated during 20 minutes at 25° C. The dough was sheeted and incubated again at 25° C. during 20 minutes, after which it was sheeted and incubated for 50 minutes at 36° C. and at a relative humidity of 80%. […] Bread volume after baking was determined by the rapeseed displacement method.
Where [3] appears, read: inhibitor at 4 mM, in vitro tests.

Regarding `Nc1ncnc2c1ncn2[C@@H]1O[C@H](COP(=O)(O)OP(=O)(O)O)[C@@H](O)[C@H]1O` [ADP], the “inhibition of the NPP” value in test [1] (ADP 1 mM) is on record as “inhibit the NPP partially”. In addition, the “ability to inhibit NPP in wheat flour” value in test [1] is given as “able to inhibit”.
On to `O=P([O-])([O-])OP(=O)([O-])OP(=O)([O-])[O-].[Na+].[Na+].[Na+].[Na+].[Na+]` [tripolyphosphate, pentasodium tripolyphosphate (Na5P3O10)], for which the “ability to inhibit NPP in wheat flour” value in test [1] is reported as “able to inhibit”.
As to `O=P([O-])(O)OP(=O)([O-])O.[Ca+2]` [Ca-pyrophosphate, CaH2P2O7], the “inhibition of NAD+ degradation by a wheat flour extract” value in test [1] (50 to 100 mM Ca-pyrophosphate) is on record as “completely inhibit”.
Take `N[C@@H](CS)C(=O)O` [L-cysteine]: the “inhibition of the NPP” value in test [1] (setting [3]) is given as “inhibited the NPP at some extent”.
Consider `O=C(O)CN(CCN(CC(=O)O)CC(=O)O)CC(=O)O` [EDTA], for which the “reactivation of the inhibited enzyme by divalent metal ions” value in test [1] was “reactivated partially”. In addition, the “inhibition of the wheat flour NPP” value in test [1] (from a concentration of 4 mM EDTA on, in vitro) was “complete inhibition”.
Turning to `O=P(O)(O)OP(=O)(O)O` [pyrophosphate], in test [2], the “coenzyme concentrations (NAD+ and NADH) in dough” value is recorded as “higher coenzyme concentrations were observed”. Moreover, the “inhibition of NAD+ degradation by a wheat flour extract” value in test [1] (10 mM pyrophosphate) and in test [1] (20 mM pyrophosphate) was “Partial inhibition” in each case. Besides, in test [1], the “reactivation of the inhibited enzyme by divalent metal ions” value is recorded as “This is not the case; also recorded: could not reactivate the enzyme”. Also, the “mode of inhibition of wheat flour nucleotide pyrophosphatase” value in test [1] (suggested: no reactivation by metal ions, pyrophosphate split into phosphate by flour extract) is “competitive inhibitor”.
`O[C@H](CS)[C@H](O)CS` (racemic) [DTT, dithiothreitol]: the “inhibition of the NPP” value in test [1] (setting [3]) is reported as “inhibited the NPP at some extent”.
In the case of sodium metaphosphate ((NaPO3)n), the “ability to inhibit NPP in wheat flour” value in test [1] was “able to inhibit”.
Regarding `O=P(O)(O)OP(=O)(O)O` [sodium pyrophosphate, Na2H2P2O7], in test [1] (100 mM sodium pyrophosphate), the “inhibition of the NPP enzyme” value is reported as “completely inhibited”.
